Marks after values point to notes of the source that are not given here.
Tests used:
hMC5R [1] = target: T1, hMC5R (Homo sapiens, UniProt P33032); experiment: Melanocortin receptor membrane binding assay (125I-NDP-alpha-MSH)
T1 construct: expressed in transfected cells; host or cells: CHO-, L- or other eukaryotic cells
Method: (§1) The membrane binding assay was used to identify competitive inhibitors of ^125I-NDP-alpha-MSH binding to cloned human MCRs expressed in mouse L- or Chinese hamster ovary (CHO)-cells.
(§2) Cell lines expressing melanocortin receptors were grown in T-180 flasks containing selective medium of the composition: 1 L Dulbecco's modified Eagles Medium (DMEM) with 4.5 g […], 25 mM Hepes, without sodium pyruvate, (Gibco/BR1); 100 ml 10% heat-inactivated fetal bovine serum (Sigma); 10 mL 10,000 unit/mL penicillin & 10,000 μg/mL streptomycin (Gibco/BR1); 10 ml 200 mM L-glutamine (Gibco/BR1); 1 mg/mL geneticin (G418) (Gibco/BR1). The cells were grown at 37° C. with CO2 and humidity control until the desired cell density and cell number was obtained.
(§3) The medium was poured off and 10 mls/T-180 flask of enzyme-free dissociation media (Specialty Media Inc.) was added. The cells were incubated at 37° C. for 10 min or until cells sloughed off when flask was banged against hand.
(§4) The cells were harvested into 200 mL centrifuge tubes and spun at 1000 rpm, 4° C., for 10 min. The supernatant was discarded and the cells were resuspended in 5 mls/monolayer membrane preparation buffer having the composition: 10 mM Tris pH 7.2-7.4; 4 μg/mL Leupeptin (Sigma); 10 μM Phosphoramidon (Boehringer Mannheim); 40 μg/mL Bacitracin (Sigma); 5 μg/mL Aprotinin (Sigma); 10 mM Pefabloc (Boehringer Mannheim). The cells were homogenized with motor-driven dounce (Talboy setting 40), using 10 strokes and the homogenate centrifuged at 6,000 rpm, 4° C., for 15 min.
(§5) The pellets were resuspended in 0.2 mls/monolayer membrane prep buffer and aliquots were placed in tubes ([…]) and quick frozen in liquid nitrogen and then stored at −80° C.
(§6) Test compounds or unlabelled NDP-α-MSH was added to 100 μL of membrane binding buffer to a final concentration of 1 μM. The membrane binding buffer had the composition: 50 mM Tris pH 7.2; 2 mM CaCl2; 1 mM MgCl2; 5 mM KCl; 0.2% BSA; 4 μg/mL Leupeptin (SIGMA); 10 μM Phosphoramidon (Boehringer Mannheim); 40 μg/mL Bacitracin (SIGMA); 5 μg/mL Aprotinin (SIGMA); and 10 mM Pefabloc (Boehringer Mannheim). One hundred μL of membrane binding buffer containing 10-40 μg membrane protein was added, followed by […]. The resulting mixture was vortexed briefly and incubated for 90-120 min at room temp while shaking.
(§7) The mixture was filtered with Packard Microplate 196 filter apparatus using Packard Unifilter 96-well GF/C filter with 0.1% polyethyleneimine (Sigma). The filter was washed (5 times with a total of 10 mL per well) with room temperature of filter wash having the composition: 50 mM Tris-HCl pH 7.2 and 20 mM NaCl. […] The top was sealed and the radioactivity quantitated in a Packard Topcount Microplate Scintillation counter.

hMC4R [2] = target: T2, hMC4R (Homo sapiens, UniProt P32245); experiment: as above
T2 construct: expressed in transfected cells; host or cells: CHO-, L- or other eukaryotic cells
T2 sequence (P32245 whole entry): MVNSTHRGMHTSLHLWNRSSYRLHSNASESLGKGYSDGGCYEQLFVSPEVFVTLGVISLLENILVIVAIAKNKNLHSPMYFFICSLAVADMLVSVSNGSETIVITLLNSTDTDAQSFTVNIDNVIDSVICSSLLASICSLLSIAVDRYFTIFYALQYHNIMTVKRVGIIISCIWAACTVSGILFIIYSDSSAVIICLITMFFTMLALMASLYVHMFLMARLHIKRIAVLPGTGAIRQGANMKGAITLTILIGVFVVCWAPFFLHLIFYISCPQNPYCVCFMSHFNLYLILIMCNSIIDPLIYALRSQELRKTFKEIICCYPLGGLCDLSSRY
Method: as §1, §2, §3, §4, §5, §6, §7

hMC1bR [3] = target: T3, hMC1bR (Homo sapiens, UniProt Q01726); experiment: as above
T3 sequence (Q01726 whole entry): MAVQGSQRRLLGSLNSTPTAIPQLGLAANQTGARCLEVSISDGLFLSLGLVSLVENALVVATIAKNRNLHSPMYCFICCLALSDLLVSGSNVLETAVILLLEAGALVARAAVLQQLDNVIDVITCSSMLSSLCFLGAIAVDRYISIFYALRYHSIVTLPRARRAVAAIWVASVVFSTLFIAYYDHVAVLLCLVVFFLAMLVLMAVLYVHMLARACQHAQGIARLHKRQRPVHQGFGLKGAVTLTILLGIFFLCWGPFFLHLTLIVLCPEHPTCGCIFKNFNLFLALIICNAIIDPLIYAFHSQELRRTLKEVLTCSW
Method: as §1, §2, §3, §4, §5, §6, §7

hMC3R [4] = target: T4, hMC3R (Homo sapiens, UniProt P41968); experiment: cAMP functional assay (agonist); assay type: cell-based
T4 construct: expressed in transfected cells; host or cells: CHO-, L- or other eukaryotic cells
T4 sequence (P41968 whole entry): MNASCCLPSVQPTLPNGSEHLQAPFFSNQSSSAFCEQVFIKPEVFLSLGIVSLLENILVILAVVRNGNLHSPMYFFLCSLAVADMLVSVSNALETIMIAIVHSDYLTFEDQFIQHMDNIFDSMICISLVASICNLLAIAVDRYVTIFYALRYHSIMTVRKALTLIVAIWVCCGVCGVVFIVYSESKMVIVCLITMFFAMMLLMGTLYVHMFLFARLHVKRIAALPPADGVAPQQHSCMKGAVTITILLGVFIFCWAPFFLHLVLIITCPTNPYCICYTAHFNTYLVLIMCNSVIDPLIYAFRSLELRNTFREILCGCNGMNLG
Method: (§8) Cells (for example, CHO— or L-cells or other eukaryotic cells) expressing a human melanocortin receptor (see e.g. Yang-YK; Ollmann-MM; Wilson-BD; Dickinson-C; Yamada-T; Barsh-GS; Gantz-I; Mol-Endocrinol. 1997 March; 11(3): 274-80) were dissociated from tissue culture flasks by rinsing with Ca and Mg free phosphate buffered saline (14190-136, Life Technologies, Gaithersburg, Md.) and detached following 5 min incubation at 37° C. with enzyme free dissociation buffer (S-014-B, Specialty Media, Lavellette, N.J.). Cells were collected by centrifugation and resuspended in Earle's Balanced Salt Solution (14015-069, Life Technologies, Gaithersburg, Md.) with additions of 10 mM HEPES pH 7.5, 5 mM MgCl2, 1 mM glutamine and 1 mg/ml bovine serum albumin. Cells were counted and diluted to 1 to 5×10^6/mL. The phosphodiesterase inhibitor 3-isobutyl-1-methylxanthine was added to cells to 0.6 mM.
(§9) Agonist Assay: Test compounds were diluted in dimethylsulfoxide (DMSO) (10^−5 to 10^−10 M) and 0.1 volume of compound solution was added to 0.9 volumes of cell suspension; the final DMSO concentration was […]. After room temperature incubation for 45 min, cells were lysed by incubation at 100° C. for 5 min to release accumulated cAMP.
(§10) cAMP was measured in an aliquot of the cell lysate with the Amersham (Arlington Heights, Ill.)

hMC5R [5] = target: T1, hMC5R; experiment: cAMP functional assay (agonist); assay type: cell-based
Method: as §8, §9, §10

ferrets [6] = experiment: MC4R associated emesis in ferrets, Compound A and Compound B (Table 1); assay type: in vivo, ferret; conditions: Compound A 60 mg/kg orally; for % Emesis: ferrets; for # of Ferrets: ferrets with emesis/dosed
Method: (§11) Food intake (FI) was monitored at 1, 2, 4, and 24, hours after dosing. Body weight (BWT) was measured at the time of dosing and at 24 hours. Any incidence of emesis or abnormal behavior by subjects was recorded. Two studies were combined to generate the data.

hMC3R [7] = target: T4, hMC3R; experiment: Melanocortin receptor membrane binding assay (125I-NDP-alpha-MSH)
Method: The cells were grown at 37° C. with CO2 and humidity control until the desired cell density and cell number was obtained.

ferrets [8] = experiment: MC4R associated emesis in ferrets, Compound A and Compound F (Table 2); assay type: in vivo, ferret; conditions: Compound A (10 mg/kg); for % Emesis: ferrets; for # of Ferrets: ferrets with emesis/dosed
Method: FIG. 3. […] All food intake data were analyzed by two-tailed T-TEST.
as §11

hMC2R = target: T5, hMC2R (Homo sapiens, UniProt Q01718); experiment: cAMP functional assay (agonist); assay type: cell-based
T5 construct: expressed in transfected cells; host or cells: CHO-, L- or other eukaryotic cells
T5 sequence (Q01718 whole entry): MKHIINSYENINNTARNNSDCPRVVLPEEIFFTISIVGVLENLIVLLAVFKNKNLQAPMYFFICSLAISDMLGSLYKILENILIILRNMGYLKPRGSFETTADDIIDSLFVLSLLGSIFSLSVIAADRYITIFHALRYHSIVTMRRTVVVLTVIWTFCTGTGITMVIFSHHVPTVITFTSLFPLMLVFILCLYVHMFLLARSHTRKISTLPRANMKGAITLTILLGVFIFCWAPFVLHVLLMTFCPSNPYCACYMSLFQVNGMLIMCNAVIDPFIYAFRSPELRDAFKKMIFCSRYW
T5 sequence (Q8TCY5 whole entry partner): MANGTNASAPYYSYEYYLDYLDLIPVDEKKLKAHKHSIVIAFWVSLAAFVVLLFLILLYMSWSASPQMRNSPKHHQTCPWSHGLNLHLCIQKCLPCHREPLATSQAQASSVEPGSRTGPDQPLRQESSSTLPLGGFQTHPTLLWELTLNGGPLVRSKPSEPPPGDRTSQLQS
Method: as §8, §9, §10
(§12) cAMP detection assay (RPA556). The amount of cAMP production which resulted from an unknown compound was compared to that amount of cAMP produced in response to alpha-MSH which was defined as a 100% agonist. The EC50 is defined as the compound concentration which results in half maximal stimulation, when compared to its own maximal level of stimulation.

hMC4R [9] = target: T2, hMC4R; experiment: cAMP functional assay (agonist); assay type: cell-based
Method: as §8, §9, §10, §12

hMC1bR [10] = target: T3, hMC1bR; experiment: cAMP functional assay (agonist); assay type: cell-based
Method: as §8, §9, §10, §12

T1 sequence (P33032 whole entry): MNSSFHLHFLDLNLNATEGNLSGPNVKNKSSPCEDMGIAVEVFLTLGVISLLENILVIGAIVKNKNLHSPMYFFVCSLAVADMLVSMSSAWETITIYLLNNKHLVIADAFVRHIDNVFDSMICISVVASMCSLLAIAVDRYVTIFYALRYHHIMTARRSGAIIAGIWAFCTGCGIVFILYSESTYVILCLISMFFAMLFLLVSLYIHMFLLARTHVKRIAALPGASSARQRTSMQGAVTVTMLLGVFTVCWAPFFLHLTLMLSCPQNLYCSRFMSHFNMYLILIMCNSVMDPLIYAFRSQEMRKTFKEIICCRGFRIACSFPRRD

CC[C@H](NC(C)=O)c1cc(Cl)ccc1C1CCN(C(=O)[C@@H]2CN(C(C)(C)C)C[C@H]2c2ccc(F)cc2F)CC1 [Compound A]
IC50 (hMC5R [1]): 1600 nM
IC50 (hMC4R [2]): 44 nM
IC50 (hMC1bR [3]): 5600 nM
Selectivity Binding IC50 1R/4R (hMC1bR [3]; IC50 hMC1bR / IC50 hMC4R): 127.27
EC50 (hMC3R [4]): 920 nM
EC50 (hMC5R [5]): 1400 nM
% Emesis (ferrets [6]; 1 hour): 31%
% Emesis (ferrets [6]; 2 hours): 8%
% Emesis (ferrets [6]; 4 hours): 69%
% Emesis (ferrets [6]; Total, 60 mg/kg): 77%
# of Ferrets (ferrets [6]; 1 hour): 4/13
# of Ferrets (ferrets [6]; 2 hours): 1/13
# of Ferrets (ferrets [6]; 4 hours): 9/13******
# of Ferrets (ferrets [6]; Total): 10/13****
IC50 (hMC3R [7]): 7200 nM
% Emesis (ferrets [8]; 1 hour): 40%
% Emesis (ferrets [8]; 2 hours): 40%
% Emesis (ferrets [8]; 4 hours): 60%
% Emesis (ferrets [8]; total): 100%
# of Ferrets (ferrets [8]; 1 hour): 2/5**
# of Ferrets (ferrets [8]; 2 hours): 2/5
# of Ferrets (ferrets [8]; 4 hours): 5/5***
# of Ferrets (ferrets [8]; total): 5/5*****
EC50 (hMC2R): > 10000 nM
EC50 (hMC4R [9]): 14 nM
EC50 (hMC1bR [10]): 1700 nM
Selectivity cAMP EC50 1R/4R (hMC1bR [10]; EC50 hMC1bR / EC50 hMC4R): 121.43
